Measurements as given in US11578055B2, “Triazacyclododecansulfonamide (“TCD”)-based protein secretion inhibitors” (KEZAR LIFE SCIENCES, priority 2018, dated 2023).
Read-outs that look alike come from different tables or passages of the source.

How the values were obtained:
[1] = test system: PD1 signal sequence plus 10 amino acids fused to Gaussia Luciferase (PD1-ss+10aa/Gaussia Luciferase); assay: Dox Induced PD1-ss-Gluc Assay; assay type: cell-based; settings: 24 hr, read-out: 24 hr Dox Inducible PD1ssGluc 293FRT/TO: Mean IC50
In short: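 Stable Flp-In 293 T-REx line expressing the fusion under tetracycline-inducible control, plated the day before assay. Compound dilutions added with doxycycline and incubated at 37 °C, 5% CO2; unspecified stereocentres mean data refer to stereoisomer mixtures.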

[2] = test system: multiple myeloma cell line U266B1; assay: U266 Cell Viability Assay; assay type: cell-based, human; settings: Homo sapiens, U-266, 48 hr
In short: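 U266B1 myeloma cells in RPMI 1640 with 10% FBS were treated with compound dilutions for 48 h at 37° C, 5% CO2. Viability was read as CellTiter-Glo luminescence. Data for structures drawn without stereochemistry refer to stereoisomer mixtures.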

[3] = In Vitro Microsome Stability Assay (monkey); assay type: in vitro ADME
In short: (§1)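 Species liver microsomes in potassium phosphate buffer were preincubated at 37 °C for 3–5 min with test compound (added from 0.25 mM DMSO stock), then started with NADPH. Samples at 0 and 30 min were quenched with acetonitrile containing internal standard and analysed by LC-MS/MS; % remaining at 30 min used analyte/IS AUC ratios relative to t=0.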

[4] = In Vitro Microsome Stability Assay (rat); assay type: in vitro ADME
In short: as §1

[5] = In Vitro Microsome Stability Assay (mouse); assay type: in vitro ADME
In short: as §1

[6] = test system: full length TNFα (amino acids 1-233) fused to Gaussia Luciferase; assay: Dox Induced TNFα-FL-Gluc Assay; assay type: cell-based; settings: 24 hr, read-out: 24 hr Dox Inducible TNFaFLGluc 293FRT/TO: Mean IC50
In short: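 Stable Flp-In 293 T-REx line expressing doxycycline-inducible full-length TNFα fused to Gaussia luciferase; cells plated the day before, then treated with compound dilutions in doxycycline-containing medium at 37° C, 5% CO2. Unspecified stereocentres mean stereoisomer mixtures were tested.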

[7] = In Vitro Microsome Stability Assay (human); assay type: in vitro ADME
In short: as §1

[8] = test system: full length PD1 (amino acids 1-288) fused to Firefly Luciferase; assay: Dox Induced PD1-FL-Gluc Assay; assay type: cell-based; settings: 24 hr, 293FRT/TO; read-out: 24 hr Dox Inducible PD1FLFluc 293FRT/TO: Mean IC50
Text: FIp-In 293 T-REx™ cells were transfected with pcDNA™5/FRT/TO plasmid inserted with cDNA encoding Firefly Luciferase fused to the 3′ end of cDNA encoding full length PD1 (amino acids 1-288). Transfected cells were selected for resistance to the selectable markers Hygromycin and Blasticidin to create a stable cell line that contained the PD1-FL/Firefly Luciferase cDNA insert whose expression was regulated under the T-REx™ system. The day before assay, cells were trypsinized and plated in 384-well tissue culture plates. The next day, compound dilutions in DMSO/media containing doxycycline were added to the wells and incubated at 37° C., 5% CO2.
For chemical structures that include one or more stereoisomers, but are illustrated without indicating stereochemistry, the assay data refers to a mixture of stereoisomers.

[9] = test system: multiple myeloma cell line NCl-H929; assay: H929 Cell Viability Assay; assay type: cell-based, human; settings: Homo sapiens, NCI-H929, 48 h
In short: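 NCI-H929 myeloma cells in RPMI 1640 with 10% FBS were treated with compound dilutions for 48 h at 37 °C, and viability was then read by CellTiter-Glo luminescence. Compounds drawn without stereochemistry were tested as stereoisomer mixtures.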

[10] = test system: HER3 signal sequence plus 4 amino acids fused to Gaussia Luciferase (HER3-ss+4aa/Gaussia Luciferase); assay: Dox Induced HER3-ss-Gluc Assay; assay type: cell-based; settings: 24 hr, doxycycline induced, Flp-In 293 T-REx cells; read-out: 24 hr Dox Inducible Her3(ss + 4) Gluc 293FRT/TO: Mean 1050
In short: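 Stable Flp-In 293 T-REx line expressing HER3 signal sequence+4aa/Gaussia luciferase under doxycycline-inducible control. Cells plated the day before; compound dilutions added in doxycycline-containing medium and incubated at 37° C, 5% CO2.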

[11] = test system: full length IL-2 (amino acids 1-153) fused to Gaussia Luciferase; assay: Dox Induced IL2-FL-Gluc Assay; assay type: cell-based; settings: 24 hr, Dox inducible, 293FRT/TO cells; read-out: 24 hr Dox Inducible IL2FLGluc 293FRT/TO: Mean IC50
In short: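 Flp-In 293 T-REx stable line expressing full-length IL-2 (aa 1-153) with C-terminal Gaussia luciferase fusion under doxycycline-inducible control. Cells plated the day before; compound dilutions added in DMSO/media containing doxycycline, incubated at 37° C, 5% CO2.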

[12] = U266, read-out: 48 hr U266 Viability Celltiter-Glo: Mean EC50
[13] = H929, read-out: 48 hr H929 Viability Celltiter-Glo: Mean EC50
[14] = monkey liver microsomes, 30 min w/ NADPH
[15] = rat liver microsomes, 30 min w/ NADPH
[16] = mouse liver microsomes, 30 min w/ NADPH
[17] = human liver microsomes, 30 min w/ NADPH

Row | Structure (SMILES) | IC50 ([1]; 293FRT/TO) | EC50 [2, 12] | Liver Microsome Stability-% Left after 30 min w/ NADPH (%) Monkey ([3]; monkey, 30 min, NADPH) | Liver Microsome Stability-% Left after 30 min w/ NADPH (%) Rat ([4]; rat, 30 min, NADPH) | Liver Microsome Stability-% Left after 30 min w/ NADPH (%) Mouse ([5]; mouse, 30 min, NADPH) | IC50 ([6]; 293FRT/TO) | Liver Microsome Stability-% Left after 30 min w/ NADPH (%) Human ([7]; human, 30 min, NADPH) | IC50 [8] | EC50 [9, 13] | IC50 ([1]; Dox inducible, 293FRT/TO cells) | EC50 ([2]; U266, Celltiter-Glo) | IC50 [10] | Liver Microsome Stability-% Left after 30 min w/ NADPH (%) Monkey [3, 14] | Liver Microsome Stability-% Left after 30 min w/ NADPH (%) Rat [4, 15] | IC50 [11] | Liver Microsome Stability-% Left after 30 min w/ NADPH (%) Mouse [5, 16] | IC50 ([6]; Dox inducible, 293FRT/TO cells) | Liver Microsome Stability-% Left after 30 min w/ NADPH (%) Human [7, 17] | EC50 ([9]; H929, Celltiter-Glo)
1 | C=C1CN(S(=O)(=O)c2ccc(C)cc2)CCCN(CC2CCCCC2)CCCN(S(=O)(=O)c2ccc(C)cc2)C1 [A2] | 345 nM | > 25 µM | 0.09% | 0.59% | 0.09% | > 25000 nM | 0.04% | 807 nM | 10100 nM | – | – | – | – | – | – | – | – | – | –
2 | C=C1CN(S(=O)(=O)c2ccc(C)cc2)CCCN(CC2CCCCC2)CCCN(S(=O)(=O)c2ccc(OC)cc2)C1 [A3] | 241 nM | > 25 µM | 0.83% | 0.37% | 0.09% | 11400 nM | 0.25% | 638 nM | 5080 nM | – | – | – | – | – | – | – | – | – | –
3 | CN(C)c1ccc(S(=O)(=O)N2CCCN(CC3CCCCC3)CCCN(S(=O)(=O)N3CCc4cc(Cl)ccc4C3)C[C@H]3CC[C@@H]32)cc1 [B22, 4-{[(1S,12R)-10-[(6-chloro-1,2,3,4-tetrahydroisoquinolin-2-yl]sulfonyl]-6-(cyclohexylmethyl)-2,6,10-triazabicyclo[10.2.0]tetradecan-2-yl]sulfonyl}-N,N-dimethylaniline] | – | – | – | – | – | – | – | – | – | 31.3 nM | > 25 µM | 57.8 nM | 1.77% | 10.1% | 80.5 nM | 8.31% | 519 nM | 1.77% | 1650 nM
4 | CCc1ccc(CNS(=O)(=O)N2CCCN(CC3CCCCC3)CCCN(S(=O)(=O)c3ccc(N(C)C)cc3)C[C@H](C)C2)cc1 [A189, (3S)-9-(cyclohexylmethyl)-5-[4-(dimethylamino)benzenesulfonyl]-N-[(4-ethylpheny)methyl]-3-methyl-1,5,9-triazacyclododecane-1-sulfonamide] | – | – | – | – | – | – | – | – | – | 512 nM | > 25 µM | 960 nM | 0.01% | 0.07% | 1360 nM | 0.14% | 8140 nM | 0.06% | 10600 nM
5 | COc1cc(F)cc(N2[C@H](C)CN(S(=O)(=O)N3CCCN(CC4CCCCC4)CCCN(S(=O)(=O)c4ccc(N(C)C)cc4)C[C@H](C)C3)C[C@@H]2C)c1 [A197] | – | – | – | – | – | – | – | – | – | 34.2 nM | > 25 µM | 77.5 nM | 92.8% | 76.6% | 95.5 nM | 65.4% | 666 nM | 70.7% | 4130 nM
6 | C[C@H]1CN(S(=O)(=O)c2ccc(N(C)C)cc2)CCCN(CC2CCCCC2)CCCN(S(=O)(=O)N2CCN(c3ccc(F)cc3Cl)CC2)C1 [A206, 4-{[(3S)-5-{[4-(2-chloro-4-fluorophenyl)piperazin-1-yl]sulfonyl}-9-(cyclohexylmethyl)-3-methyl-1,5,9-triazacyclododecan-1-yl]sulfonyl}-N,N-dimethylaniline] | – | – | – | – | – | – | – | – | – | 17.4 nM | > 25 µM | 38.2 nM | 65% | 80.5% | 39 nM | 84.3% | 395 nM | 54.7% | 657 nM
7 | C[C@H]1CN(S(=O)(=O)c2ccc(N(C)C)cc2)CCCN(CC2CCCCC2)CCCN(S(=O)(=O)N2CCN(c3ccccc3Cl)CC2)C1 [A198, 4-{[(3S)-5-{[4-(2-chlorophenyl)piperazin-1-yl]sulfonyl}-9-(cyclohexylmethyl)-3-methyl-1,5,9-triazacyclododecan-1-yl]sulfonyl}-N,N-dimethylaniline] | – | – | – | – | – | – | – | – | – | 18.5 nM | > 25 µM | 44.1 nM | 65.1% | 61.4% | 53.3 nM | 68.2% | 373 nM | 39.2% | 1170 nM
8 | COc1cc(F)ccc1N1CCN(S(=O)(=O)N2CCCN([C@@H](C)C3CCCCC3)CCCN(S(=O)(=O)c3ccc(N(C)C)cc3)C[C@H](C)C2)CC1 [A203] | – | – | – | – | – | – | – | – | – | 14.8 nM | > 25 µM | 34.1 nM | 77.9% | 78.7% | 30.4 nM | 80.3% | 434 nM | 83.4% | 396 nM
